Residues, ends and D or L forms follow the SMILES beside them. *: point of attachment. Boc = CC(C)(C)OC(=O)*
Assays:
[1] = test system: peptide-forming enzyme from Empedobacter brevis strain FERM BP-8113; assay: Substrate specificity of enzyme (peptide production from carboxy and amine components); format: biochemical; set-up: key: +: those peptides for which production was confirmed but which were unable to be quantified due to the absence of a standard; a trace amount; details: 0.1 unit enzyme, 25° C.
[2] = test system: Empedobacter brevis strain FERM BP-8113 microbial cells; assay: Production of peptide using microbial cells of Empedobacter brevis; format: cell-based; details: 1 mL 100 g/L cell suspension + 1 mL buffer with 200 mM carboxy component, 400 mM amino acid, 10 mM EDTA, pH 9.0, 18° C., 2 hours
Description: A 50 mL medium (pH 6.2) containing 5 grams (g) of glucose, 5 g of ammonium sulfate, 1 g of monopotassium phosphate, 3 g of dipotassium phosphate, 0.5 g of magnesium sulfate, 10 g of yeast extract and 10 g of peptone in 1 liter (L) was transferred to a 500 mL Sakaguchi flask and sterilized at 115° C. for 15 minutes.
Microbial cells were collected by centrifuging (10,000 rounds per minute (rpm), 15 minutes) the culture broth obtained in Example 1, followed by suspending them to a concentration of 100 g/L in 100 mM borate buffer (pH 9.0) containing 10 mM EDTA. After respectively adding 1 mL of the suspension to 1 mL each of 100 mM borate buffer solutions (pH 9.0) containing 10 mM EDTA, 200 mM of the following carboxy components, and 400 mM of the following amino acids to make a final volume of 2 mL, the reaction was carried out at 18° C. for 2 hours.

[3] = test system: peptide-forming enzyme from Empedobacter brevis strain FERM BP-8113; assay: Substrate specificity of enzyme (peptide production from carboxy and amine components); format: biochemical; details: L-amino acid methyl ester hydrochloride 100 mM, 150 mM L-glutamine, pH 9.0, 25° C., 3 hours
Description: Ester specificity was examined in the case of using L-amino acid ester for the carboxy component. […] HCl represents hydrochloride in Table 4.
Peptide production was examined in the case of using L-alanine methyl ester for the carboxy component and using various L-amino acids for the amine component.
Peptide production was examined in the case of using various types of L-amino acid methyl esters for the carboxy component and using L-glutamine for the amine component. […] Furthermore, Tween-80 was added to the reaction system to a final concentration of 0.1% in the case of using L-Trp-OMe and L-Tyr-OMe.

[4] = test system: peptide-forming enzyme from Empedobacter brevis strain FERM BP-8113; assay: as above; format: biochemical; details: L-amino acid amide hydrochloride 100 mM as carboxy component, L-amino acid 150 mM, pH 9.0, 25° C., 3 hours
[5] = test system: peptide-forming enzyme from Sphingobacterium sp. strain FERM BP-8124; assay: Production of L-alanyl-L-glutamine using SP-Sepharose HP enzyme fraction of Sphingobacterium sp.; format: biochemical; details: 10 μl SP-Sepharose HP fraction + 90 μl buffer with 111 mM L-alanine methyl ester hydrochloride, 222 mM L-glutamine, pH 9.0, 25° C., 120 minutes
Description: As a result, 73 mM of L-alanyl-L-glutamine was formed in the enzyme-added lot.

[6] = test system: enzyme derived from Sphingobacterium sp. strain FERM BP-8124; assay: Substrate specificity of enzyme derived from Sphingobacterium sp.; format: biochemical; details: Table 15-4; carboxy component 100 mM, amine component 150 mM, 0.33 units enzyme, pH 9.0, 25° C., 1.5 hours
[7] = test system: Sphingobacterium sp. strain FERM BP-8124 microbial cells; assay: Production of L-alanyl-L-glutamine using microbial cells of Sphingobacterium sp.; format: cell-based; details: 0.1 mL 100 g/L cell suspension + 0.1 mL buffer with 200 mM L-alanine methyl ester hydrochloride, 400 mM L-glutamine, pH 9.0, 25° C., 120 minutes
Description: (§1) 22, 2002). […] 1 ml of this culture broth was then added to the aforementioned medium (50 ml/500 mL Sakaguchi flask) and cultured at 30° C. for 18 hours. Following completion of the culturing, the microbial cells were separated from the culture broth by centrifugation and suspended in 0.1 M borate buffer (pH 9.0) containing 10 mM EDTA at a concentration of 100 g/L as wet microbial cells. […] The resulting 0.2 mL of mixture was allowed to react at 25° C. for 120 minutes. The concentration of L-alanyl-L-glutamine formed at this time was 62 mM.
as §1, with “After” for “Following”, “culture,” for “culturing,”, “minutes.” for “minutes. The concentration of L-alanyl-L-glutamine formed at this time was 62 mM.”

[8] = test system: peptide-forming enzyme from Empedobacter brevis strain FERM BP-8113; assay: Production of L-alanyl-L-glutamine from L-alanine methyl ester and L-glutamine with the Mono S fraction enzyme; details: L-alanine methyl ester hydrochloride 100 mM, 18° C., 2 hours
[9] = test system: peptide-forming enzyme from Empedobacter brevis strain FERM BP-8113; assay: Substrate specificity of enzyme (peptide production from carboxy and amine components); format: biochemical; set-up: key: +: those for which production was confirmed but which were unable to be quantified due to the absence of a standard; a trace amount
[10] = Comparison of ability to catalyze peptide formation with known enzymes; format: biochemical; details: enzyme of present invention = 100.0
Description: The peptide-forming ability of the present enzyme was compared with that of known enzymes. Carboxypeptidase Y described in EP 278787A1 and the thiol endopeptidases (ficin, papain, bromelain, and chymopapain) described in EP 359399B1 were used as the known enzymes, and they were used in the form of purified enzymes (manufactured by Sigma). The enzyme uniformly purified in Example 3 was used as a source of the present enzyme of the present invention. […] As has been described above, the present enzyme was verified to have an extremely high peptide production rate unlike any known enzyme in the prior art. Furthermore, the enzyme of the present invention is a dimer having a molecular weight of about 75,000. In contrast, the molecular weight of the carboxypeptidase Y has been reported to be about 61,000, while the molecular weight of thiol endopeptidase has been reported to be about 23,000 to 36,000. Thus, the L-alanyl-L-glutamine production rate of the enzyme of the present invention as compared to those of the carboxypeptidase Y and the thiol endopeptidase is even greater when the rate is expressed per molecular weight than when it is expressed per unit weight as indicated in the examples.

[11] = test system: peptide-forming enzyme from Empedobacter brevis strain FERM BP-8113; assay: Enzyme inhibitors: effect on L-alanyl-L-glutamine production by the Mono S fraction enzyme; format: biochemical
[12] = carboxy component 100 mM, amine component 150 mM, reaction time 3 hr
[13] = oligopeptide production, amount of enzyme 0.2 unit, pH 9.0, 25° C., 3 hours

For H—N—Me-Ala-Phe-OH, the “Produced peptide (mM)” value [1, 12] was “tr”.

In the case of C[C@H](N)C(=O)N[C@@H](CCC(N)=O)C(=O)O [L-Ala-L-Gln, L-alanyl-L-glutamine] (H-Ala-Gln-OH), the “Formed peptide” value [2] is reported as 68.0 mM, the “Formed peptide” value [3] is reported as 74.6 mM and the “Formed peptide” value [4] is reported as 7.6 mM. The L-alanyl-L-glutamine formed [5] was 73 mM, the “Produced peptide” value [6] was 0.3 mM and the “concentration of L-alanyl-L-glutamine formed” value [7] was 62 mM. For the same molecule, the “L-Ala-L-Gln” value ([8]; L-glutamine 100 mM) was 68.2 mM, the “L-Ala-L-Gln” value ([8]; L-glutamine 110 mM) was 72.1 mM and the “L-Ala-L-Gln” value ([8]; L-glutamine 120 mM) was 73.3 mM. For the same molecule, the “L-Ala-L-Gln” value ([8]; L-glutamine 130 mM) was 75.1 mM, the “L-Ala-L-Gln” value ([8]; L-glutamine 150 mM) was 75.5 mM and the “L-Ala-L-Gln” value ([8]; L-glutamine 200 mM) was 82.0 mM.

For L-Ala-L-Phe-L-Met, the “Produced peptide (mM)” value [9, 13] was “+”.

In the case of H-t-Leu-H-Gln-OH, the “Produced peptide (mM)” value [1, 12] is reported as “tr”.

For H-CHA-Phe-OH, the “Produced peptide (mM)” value ([9]; carboxy component 40 mM, amine component 40 mM, 0.1 unit enzyme, 25° C., reaction time 3 hr) was “+”.

In the case of H-Ser(tBu)-Gln-OH, the “Produced peptide (mM)” value ([1]; carboxy component 100 mM, amine component 150 mM, reaction time 2 hr) is reported as “tr”.

In the case of “Chymopapain: thiol endopeptidase described in EP 359399B1, purified enzyme manufactured by Sigma”, the “Ratio of L-Ala-L-Gln production rate per enzyme unit weight” value (“Ratio … per enzyme unit weight” below) [10] is reported as 0.0013.

With H—Cl—F-Phe-H-Gln-OH the “Produced peptide (mM)” value ([1]; carboxy component 25 mM, amine component 50 mM, reaction time 3 hr) was “tr”.

For L-Ala-Gly-Gly-L-Phe-L-Met, the “Produced peptide (mM)” value [9, 13] was “+”.

For O=S(=O)(F)Cc1ccccc1 [Phenylmethylsulfonyl fluoride], the “Relative activity of L-Ala-L-Gln production (%)” value ([11]; inhibitor at 10 mM, borate buffer pH 9.0, 25° C., 5 minutes, 100 = absence of enzyme inhibitor) was 115% and the “inhibition of the enzyme by serine enzyme inhibitors (in words)” value ([11]; inhibitor at 10 mM, pH 9.0, 25° C., 5 minutes) was “not inhibited”.

With Ficin the “Ratio … per enzyme unit weight” value [10] was 0.0017.

For L-Ala-Gly-L-Phe, the “Produced peptide (mM)” value ([9]; oligopeptide production, amount of enzyme 0.1 unit, pH 9.0, 25° C., 3 hours) was “+”.

In the case of H-Lys(Boc)-Gln-OH, the “Produced peptide (mM)” value ([9]; carboxy component 100 mM, amine component 150 mM, 0.1 unit enzyme, 25° C., reaction time 2 hr) is reported as “+”.

With O=C(O)CI [Monoiodoacetate] the “Relative activity of L-Ala-L-Gln production (%)” value ([11]; pH 9) was 101%.

With H-2-Nal-H-Gln-OH the “Produced peptide (mM)” value ([1]; carboxy component 40 mM, amine component 40 mM, reaction time 3 hr) was “tr”.

For H-Ala-2-Nal-OH, the “Produced peptide (mM)” value ([9]; carboxy component 20 mM, amine component 20 mM, 0.1 unit enzyme, 25° C., reaction time 3 hr) was “+”.

In the case of H-p-F-Phe-H-Gln-OH, the “Produced peptide (mM)” value [1, 12] is reported as “tr”.

For Bromelain, the “Ratio … per enzyme unit weight” value [10] was 0.0010.

B1: Papain: thiol endopeptidase described in EP 359399B1, purified enzyme manufactured by Sigma (protein, UniProt P00784 134-345, looked up)
Papain: IPEYVDWRQKGAVTPVKNQGSCGSCWAFSAVVTIEGIIKIRTGNLNEYSEQELLDCDRRSYGCNGGYPWSALQLVAQYGIHYRNTYPYEGVQRYCRSREKGPYAAKTDGVRQVQPYNEGALLYSIANQPVSVVLEAAGKDFQLYRGGIFVGPCGNKVDHAVAAVGYGPNYILIKNSWGTGWGENGYIRIKRGTGNSYGVCGLYTSSFYPVKN
In the case of B1, the “Ratio … per enzyme unit weight” value [10] is reported as 0.0021.

B2: Carboxypeptidase Y: known enzyme described in EP 278787A1, purified enzyme manufactured by Sigma (protein, UniProt P00729 112-532, looked up)
Carboxypeptidase Y: KIKDPKILGIDPNVTQYTGYLDVEDEDKHFFFWTFESRNDPAKDPVILWLNGGPGCSSLTGLFFELGPSSIGPDLKPIGNPYSWNSNATVIFLDQPVNVGFSYSGSSGVSNTVAAGKDVYNFLELFFDQFPEYVNKGQDFHIAGESYAGHYIPVFASEILSHKDRNFNLTSVLIGNGLTDPLTQYNYYEPMACGEGGEPSVLPSEECSAMEDSLERCLGLIESCYDSQSVWSCVPATIYCNNAQLAPYQRTGRNVYDIRKDCEGGNLCYPTLQDIDDYLNQDYVKEAVGAEVDHYESCNFDINRNFLFAGDWMKPYHTAVTDLLNQDLPILVYAGDKDFICNWLGNKAWTDVLPWKYDEEFASQKVRNWTASITDEVAGEVKSYKHFTYLRVFNGGHMVPFDVPENALSMVNEWIHGGFSL
For B2, the “Ratio … per enzyme unit weight” value [10] was 0.0191.

From patent publication US8753841B2, “Enzyme that catalyzes a peptide-forming reaction from a carboxy component and an amine component, microbe producing the same, and a method of producing a dipeptide using the enzyme or microbe” (Ajinomoto Co., Inc., priority 2002, dated 2014)
